Values of other authors as cited in patent US10406114B2, “Antibiotic-loaded transdermal patch” (priority 2017, dated 2019).

Test system: Staphylococcus aureus

- MIC: about 8 μg/ml
SMILES: CC1=C(C(=O)O)N2C(=O)[C@@H](NC(=O)[C@H](N)c3ccccc3)[C@H]2SC1 [cephalexin]
